Results: PubChem BioAssay (NCI)
Where “and” joins values, the source holds several entries; their conditions need not be identical. Equal entries are not always repeated.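 Interpolation was linear, between the two tested concentrations surrounding the appropriate level; five concentrations were tested over 48 hours in 96-well plates. GI50: concentration for 50% inhibition of growth. Definition used: TGI = concentration required for complete inhibition of growth.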

How the values were obtained:
Experiment in all cases: inhibition of tumour cell growth, NCI panel, 48 h
MDA-MB-231 breast = tested on: MDA-MB-231 breast
786-0 renal = tested on: 786-0 renal
BT-549 breast = tested on: BT-549 breast
MALME-3M melanoma = tested on: MALME-3M melanoma
SK-MEL-28 melanoma = tested on: SK-MEL-28 melanoma
NCI/ADR-RES ovarian = tested on: NCI/ADR-RES ovarian
SK-MEL-5 melanoma = tested on: SK-MEL-5 melanoma
MDA-MB-435 = tested on: MDA-MB-435
HL-60(TB) leukemia = tested on: HL-60(TB) leukemia
OVCAR-8 ovarian = tested on: OVCAR-8 ovarian

SMILES | GI50 (MDA-MB-231 breast) | TGI (MDA-MB-231 breast) | GI50 (786-0 renal) | TGI (786-0 renal) | GI50 (BT-549 breast) | TGI (BT-549 breast) | GI50 (MALME-3M melanoma) | TGI (MALME-3M melanoma) | GI50 (SK-MEL-28 melanoma) | TGI (SK-MEL-28 melanoma) | GI50 (NCI/ADR-RES ovarian) | TGI (NCI/ADR-RES ovarian) | GI50 (SK-MEL-5 melanoma) | TGI (SK-MEL-5 melanoma) | GI50 (MDA-MB-435) | TGI (MDA-MB-435) | GI50 (HL-60(TB) leukemia) | TGI (HL-60(TB) leukemia) | GI50 (OVCAR-8 ovarian) | TGI (OVCAR-8 ovarian)
Cc1cccc2c(=O)c3c(sc12)c(NCCN)nc1ccccc13 | 0.664 µM | 1.41 µM | 0.917 µM | 1.69 µM | 1.33 µM | 4.07 µM | 0.841 µM | 1.59 µM | 0.936 µM | 1.7 µM | 0.909 µM | 1.95 µM | 0.953 µM | 1.94 µM | 0.911 µM | 1.67 µM | 0.864 µM | 1.74 µM | 0.885 µM | 1.98 µM
COc1ccc2c(c1)N(CCC1CCCCN1C)c1ccccc1S2 (centres undefined) |  | 23.6 µM |  | 29.5 µM |  | 30.4 µM |  | 33.7 µM |  | 14.2 µM |  | 25.4 µM |  | 24.8 µM |  | 20.6 µM |  | 24.8 µM |  | 30.9 µM
O=C(Nc1cc(Cl)cc(Cl)c1)c1ccc(NC2=C(Cl)C(=O)N(Cc3ccccc3)C2=O)cc1 | 5.74 µM | 22.4 µM | 2.87 µM | 8.74 µM | 4.59 µM | 19.3 µM | 14.6 µM | 30.4 µM | 41.9 µM | > 100 µM | 11.3 µM | 26.7 µM | 1.57 µM | 3.19 µM | 11.7 µM | 25.2 µM | 1.55 µM | 4.43 µM | 2.62 µM | 6.32 µM
O=C(CN/C=C\C(=O)c1cc(Cl)ccc1Cl)c1ccccc1 | 21.6 µM | 47.5 µM | 36.1 µM | > 100 µM | 27.4 µM | 74.7 µM | 25.1 µM | 78.3 µM | 41.9 µM | > 100 µM | 19.7 µM | 41.2 µM | 18.1 µM | 33.7 µM | 19.2 µM | 45 µM | 73.4 µM | > 100 µM | 26.4 µM | 71.4 µM
CCOC(=O)C1=C(N)Oc2cc(OC)ccc2C1c1ccc(F)c(F)c1 (centres undefined) | 2.48 µM | 13.8 µM | 3.45 µM | 16.8 µM | 2.05 µM | 16.3 µM | 10.3 µM | 24.1 µM | 6.44 µM | 21.9 µM | 0.703 µM | 17 µM | 1.68 µM | 12.6 µM | 0.229 µM | 0.844 µM | 0.404 µM | 4.8 µM | 3.28 µM | 19.2 µM
COc1ccc(/C=C2\CCCC3=C2N=C2SC=NN2C3c2ccc(OC)c(OC)c2)cc1OC (centres undefined) | 26 µM | > 100 µM | 25.3 µM | > 100 µM | 21.9 µM | > 100 µM | 22.6 µM | 78.7 µM | 19.3 µM | > 100 µM | 18.2 µM | > 100 µM | 16.4 µM | > 100 µM | 3.51 µM | 42.8 µM | 22.2 µM | 78 µM | 5.51 µM | > 100 µM
Cc1cc(Cl)ccc1Nc1nc(C(F)(F)F)ccc1C(=O)N/N=C/c1ccc(F)cc1 | 1.47 µM | 5.94 µM | 1.45 µM | 5.93 µM | 1.06 µM | 3.51 µM | 1.11 µM | 4.7 µM | 2.01 µM | 10.6 µM | 2.27 µM | 19.2 µM | 1.58 µM | 3.13 µM | 2.78 µM | 11 µM | 1.77 µM | 5.01 µM | 1.48 µM | 6.33 µM
C(#Cc1ccccc1C#Cc1ccccn1)c1ccc(OCCCCCCOc2ccc(C#Cc3ccccc3C#Cc3ccccn3)cc2)cc1 | 2.47 µM | 9.64 µM | 5.55 µM | 28.8 µM | 4.39 µM | 12.1 µM | 7.76 µM | 16.3 µM | 6.18 µM | 12.4 µM | 2.43 µM | 18.3 µM | 1.73 µM | 7.26 µM | 1.69 µM | 9.71 µM | 0.108 µM | 1.44 µM | 4.16 µM | 14.6 µM
Nc1nn(C(=O)Nc2ccc(Cc3ccccc3)cc2)c2ccccc12 | 0.847 µM | 43.9 µM | 3.76 µM | 26.2 µM | 13.5 µM | 39.6 µM | 19.2 µM | 64.1 µM | 11.5 µM | > 100 µM | 7.87 µM | > 100 µM | 2.22 µM | 8.64 µM | 2.82 µM | > 100 µM | 0.466 µM | 15.2 µM | 21.9 µM | 63.9 µM
COc1cc([C@@H]2c3cc4c(cc3[C@H](O)[C@H]3COC(=O)[C@@H]23)OCO4)cc(OC)c1OC | 0.776 µM and 0.454 µM | > 100 µM | 0.504 µM and 0.332 µM | > 100 µM | 0.632 µM and 0.259 µM | > 42.5 µM | 1.11 µM and 0.169 µM | > 100 µM | 0.561 µM and 0.374 µM | > 100 µM | 0.884 µM and 0.194 µM | > 10 µM | 0.351 µM and 0.0355 µM | 1.8 µM and 0.254 µM | 0.124 µM and 0.0315 µM | 0.377 µM and 0.132 µM | 0.293 µM and 0.454 µM | > 2.81 µM and 64.1 µM | 0.707 µM and 0.397 µM | > 100 µM
CCCNNC(=O)c1ccc(CNC(=O)/C=C/c2ccccc2)cc1 | 0.348 µM | > 100 µM | 0.314 µM | > 100 µM | 1.43 µM | > 100 µM | 0.0475 µM | > 100 µM | 0.146 µM | 0.857 µM | 0.111 µM |  | 0.102 µM | 0.262 µM | 0.2 µM |  | 0.219 µM | > 100 µM | 0.114 µM | > 100 µM
Clc1cccc(Cc2cn3cc(-c4ccccc4)nc3s2)c1 | 1.91 µM | 21.3 µM | 26.7 µM | > 100 µM | 28.8 µM | > 100 µM | 21.4 µM | > 100 µM | 61.5 µM | > 100 µM | 3.49 µM | > 100 µM | 2.67 µM | > 100 µM | 3.48 µM | > 100 µM | 9.13 µM | > 100 µM | 20.5 µM | > 100 µM
NS(=O)(=O)c1ccc(NCc2cnc3ccccc3c2)cc1 |  | > 100 µM |  | > 100 µM |  | > 100 µM |  | > 100 µM |  | > 100 µM |  | > 100 µM |  | > 100 µM |  | > 100 µM |  | 3.96 µM |  | > 100 µM
CSc1ccc2c(c1)C(=O)c1c-2n(CCCN=[N+]=[N-])c(=O)c2cc([N+](=O)[O-])ccc12 | > 100 µM | > 100 µM | 1.65 µM | 14.6 µM |  | > 100 µM |  | > 38.9 µM | 51.4 µM | > 100 µM | 3.15 µM | > 100 µM | 2.56 µM | 16.4 µM | 14.1 µM | > 100 µM | 1.17 µM |  | 7.97 µM | > 100 µM
COc1cc2c3c(n(CCCN4CCOCC4)c(=O)c2cc1OC)-c1cc2c(cc1C3=O)OCO2 | 3.92 µM |  | 0.689 µM | 20.3 µM | 12.6 µM | > 100 µM | 6.6 µM | 84.5 µM | > 76.9 µM | > 100 µM | 1.57 µM | 27.1 µM | 1.34 µM | 12.2 µM | 28 µM | > 84.4 µM | 3.57 µM | > 47 µM | 3.62 µM | > 100 µM
